These results are taken from the supplement of paper PMC11208160.

The data set can be described thus: recombinant barcode read abundance after kanamycin selection (control-corrected) (log10(CPM+1)); higher = more efficient recombination; sequences stand for … in AGTGCAGAGAAAATCGGCCAGTTTTCTCTGCCTGCAGTCCGCATGCCGT…AGATTTATGCAGCGGACTGCCTTTCTCCCAAAGTGATAAACCGGACAGTATCATGGACCGGTTTTCCCGGTAATCCGTATTTGCAAGGTTGGTTTCACT; site = the 11-nt target. The method, then: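 Pooled E. coli target-specificity screen for the IS621 bridge recombinase. Each library plasmid pairs an 11-nt target (CT core) with a bridge RNA whose target-binding loop (9-nt LTG + 4-nt RTG) is reprogrammed; the rest of the 177-nt WT IS621 bridge RNA scaffold is fixed. The plasmid is co-electroporated with a WT donor plasmid; recombinase is induced with 0.1 mM IPTG and recombinants are selected on kanamycin. Recombinant barcodes are sequenced, converted to CPM, averaged over two biological replicates and corrected by the unselected control CPM. Molecule = full bridge RNA written as DNA: LTG = specificity nt 1-9, RTG = reverse complement of specificity nt 8-11, in the WT scaffold.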
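Also: IS621 recombinase and bridge RNA in Escherichia coli cells.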

Regarding “AAAAGTCCTTGGGTTCTAACCTGTTGCCT (site AAAAGTCCTAG)”, the “recombinant barcode read abundance (log10)” value came out at 1.11. The same measure for “AAAAGTCCTTGGGTTCTAACCTGTTGCCT (site AAGAGTCCTAC)”: 0.0517; for “AAAATGCCTTGGGTTCTAACCTGTTGCCT (site AAAATGCCTAG)”: 0.359; for “AAAATGCCTTGGGTTCTAACCTGTTGCCT (site CAAATGTCTAG)”: 0.0967. With “AAACGACCTTGGGTTCTAACCTGTTGCCT (site AAACGACCTAG)” the figure was 1.59; with “AAACGACCTTGGGTTCTAACCTGTTGCCT (site CAACGACCTAG)”, 0.291; with “AAACGACCTTGGGTTCTAACCTGTTGCCT (site GAACGACCTAG)”, 0.0625. The same measure for “AAACGACCTTGGGTTCTAACCTGTTGCCT (site TAACGACCTAG)”: 0.801; for “AAAGCTACTTGGGTTCTAACCTGTTGCTA (site AAAGCTACTTA)”: 0.86; for “AAAGCTACTTGGGTTCTAACCTGTTGCTA (site TGGTAGTCTAC)”: 0.0812. Regarding “AAAGTGTCTTGGGTTCTAACCTGTTGCCT (site AAAGTGTCTAG)”, the “recombinant barcode read abundance (log10)” value stood at 2.97. Take “AAAGTGTCTTGGGTTCTAACCTGTTGCCT (site AACGTGTCTAG)”: the “recombinant barcode read abundance (log10)” value came to 0.373. The same measure for “AAAGTGTCTTGGGTTCTAACCTGTTGCCT (site AAGGTGTCTAG)”: 0.489. The same measure for “AAAGTGTCTTGGGTTCTAACCTGTTGCCT (site AATGTGTCTAG)”: 0.65; for “AAATCGTCTTGGGTTCTAACCTGTTGCCT (site AAATCGTCTAG)”: 0.817; for “AAATCGTCTTGGGTTCTAACCTGTTGCCT (site AACACGTCTAG)”: 0.176.

Consider “AACAGCTCTTGGGTTCTAACCTGTTGCCT (site AACAGCTCTAG)”, for which the “recombinant barcode read abundance (log10)” value was 1.75. With “AACAGCTCTTGGGTTCTAACCTGTTGCCT (site AACAGTTCTAG)” the figure was 0.15; with “AACAGTGCTTGGGTTCTAACCTGTTGCCT (site AACAATGCTAG)”, 0.248; with “AACAGTGCTTGGGTTCTAACCTGTTGCCT (site AACACTGCTAG)”, 0.219. For the sequence “AACAGTGCTTGGGTTCTAACCTGTTGCCT (site AACAGTGCTAG)”, the “recombinant barcode read abundance (log10)” value worked out at 0.73. With “AACAGTGCTTGGGTTCTAACCTGTTGCCT (site AACATTGCTAG)”, the “recombinant barcode read abundance (log10)” value is 0.0547. In the case of “AACATGCCTTGGGTTCTAACCTGTTGCTT (site AACAAGCCTCA)”, the “recombinant barcode read abundance (log10)” value turned out to be 0.233. With “AACATGCCTTGGGTTCTAACCTGTTGCTT (site AACATGCCTAA)” the figure was 0.478.

In the case of “AACCAGCCTTGGGTTCTAACCTGTTGCCT (site AACCAGCCTAG)”, the “recombinant barcode read abundance (log10)” value stood at 1.33. The same measure for “AACCAGCCTTGGGTTCTAACCTGTTGCCT (site AACCATCCTAG)”: 0; for “AACCAGTCTTGGGTTCTAACCTGTTGCGA (site AACCAGTCTTC)”: 1.38; for “AACCAGTCTTGGGTTCTAACCTGTTGCGA (site AACTAGTCTTA)”: 0.0824.

In the case of “AACGCTCCTTGGGTTCTAACCTGTTGCCT (site AACGCTCCTAG)”, the “recombinant barcode read abundance (log10)” value was 0.102. With “AACGCTCCTTGGGTTCTAACCTGTTGCCT (site ACCGCTCCTAG)” the figure was 0; with “AACGCTCCTTGGGTTCTAACCTGTTGCCT (site AGCGCTCCTAG)”, 0.833; with “AACGCTCCTTGGGTTCTAACCTGTTGCCT (site ATCGCTCCTAG)”, 0.239. The same measure for “AACGCTCCTTGGGTTCTAACCTGTTGCGG (site AACGCTCCTCC)”: 0.503; for “AACGCTCCTTGGGTTCTAACCTGTTGCGG (site CACGGTCCTCC)”: 0.0943; for “AACTAAGCTTGGGTTCTAACCTGTTGCCT (site AACTAAGCTAG)”: 0.336. Turning to “AACTAAGCTTGGGTTCTAACCTGTTGCCT (site GGAAGCCCTTA)”, the “recombinant barcode read abundance (log10)” value was 0.325. The same measure for “AACTCAACTTGGGTTCTAACCTGTTGCCT (site AACTAAACTAG)”: 0.108. Regarding “AACTCAACTTGGGTTCTAACCTGTTGCCT (site AACTCAACTAG)”, the “recombinant barcode read abundance (log10)” value was found to be 0.288. As to “AACTCAACTTGGGTTCTAACCTGTTGCCT (site AACTGAACTAG)”, the “recombinant barcode read abundance (log10)” value came to 0.18. The same measure for “AACTCAACTTGGGTTCTAACCTGTTGCCT (site AACTTAACTAG)”: 0.107; for “AAGAAAGCTTGGGTTCTAACCTGTTGCCT (site AAGAAAGCTAG)”: 1.82.

For the sequence “AAGAAAGCTTGGGTTCTAACCTGTTGCCT (site AAGACAGCTAG)”, the “recombinant barcode read abundance (log10)” value is 0.0854. The same measure for “AAGAAAGCTTGGGTTCTAACCTGTTGCCT (site AAGAGAGCTAG)”: 0.113; for “AAGAAAGCTTGGGTTCTAACCTGTTGCCT (site AAGATAGCTAG)”: 0.464; for “AAGACCTCTTGGGTTCTAACCTGTTGCCT (site AAGACCTCTAG)”: 1.67. With “AAGACCTCTTGGGTTCTAACCTGTTGCCT (site TAGACCTCTAG)” the figure was 1.29; with “AAGATACCTTGGGTTCTAACCTGTTGCCT (site AAGATACCTAG)”, 2.23; with “AAGATACCTTGGGTTCTAACCTGTTGCCT (site ATGATACCTAG)”, 0.0427.

With “AAGCACTCTTGGGTTCTAACCTGTTGCCT (site AAGCAATCTAG)”, the “recombinant barcode read abundance (log10)” value worked out at 0.195. The same measure for “AAGCACTCTTGGGTTCTAACCTGTTGCCT (site AAGCACTCTAG)”: 2.58; for “AAGCACTCTTGGGTTCTAACCTGTTGCCT (site AAGCAGTCTAG)”: 0.107; for “AAGCACTCTTGGGTTCTAACCTGTTGCCT (site AAGCATTCTAG)”: 0. Consider “AAGCAGTCTTGGGTTCTAACCTGTTGCCT (site AAGCAATCTAG)”, for which the “recombinant barcode read abundance (log10)” value stood at 0.44.

Consider “AAGCAGTCTTGGGTTCTAACCTGTTGCCT (site AAGCACTCTAG)”, for which the “recombinant barcode read abundance (log10)” value amounted to 0.206. For the sequence “AAGCAGTCTTGGGTTCTAACCTGTTGCCT (site AAGCAGTCTAG)”, the “recombinant barcode read abundance (log10)” value came to 2.5. For “AAGCAGTCTTGGGTTCTAACCTGTTGCCT (site AAGCATTCTAG)”, the “recombinant barcode read abundance (log10)” value amounted to 0.162. With “AAGCATCCTTGGGTTCTAACCTGTTGCCT (site AAGCATCCTAG)” the figure was 1.07. The same measure for “AAGCATCCTTGGGTTCTAACCTGTTGCCT (site ACGCATCCTAG)”: 0.192; for “AAGCATCCTTGGGTTCTAACCTGTTGCCT (site AGGCATCCTAG)”: 0.358.

As to “AAGCATCCTTGGGTTCTAACCTGTTGCCT (site ATGCATCCTAG)”, the “recombinant barcode read abundance (log10)” value amounted to 0.00873.

Regarding “AAGCATTCTTGGGTTCTAACCTGTTGCCT (site AAGCAATCTAG)”, the “recombinant barcode read abundance (log10)” value was determined as 0.379. With “AAGCATTCTTGGGTTCTAACCTGTTGCCT (site AAGCACTCTAG)” the figure was 0.111; with “AAGCATTCTTGGGTTCTAACCTGTTGCCT (site AAGCAGTCTAG)”, 0.254. The same measure for “AAGCATTCTTGGGTTCTAACCTGTTGCCT (site AAGCATTCTAG)”: 1.81; for “AAGCGCTCTTGGGTTCTAACCTGTTGCTG (site AAGCGCTCTCA)”: 2.39; for “AAGCGCTCTTGGGTTCTAACCTGTTGCTG (site TTCTATGCTAC)”: 0.542.

As to “AAGCGTACTTGGGTTCTAACCTGTTGCCT (site AAGCGTACTAG)”, the “recombinant barcode read abundance (log10)” value stood at 1.92. “AAGCGTACTTGGGTTCTAACCTGTTGCCT (site AAGCGTCCTAG)”: the “recombinant barcode read abundance (log10)” value was 0.141. The same measure for “AAGCGTACTTGGGTTCTAACCTGTTGCCT (site AAGCGTGCTAG)”: 0.0421. Turning to “AAGCGTACTTGGGTTCTAACCTGTTGCCT (site AAGCGTTCTAG)”, the “recombinant barcode read abundance (log10)” value worked out at 0.128. The same measure for “AAGCGTGCTTGGGTTCTAACCTGTTGCCT (site AAGCGTACTAG)”: 1.38; for “AAGCGTGCTTGGGTTCTAACCTGTTGCCT (site AAGCGTCCTAG)”: 0.197; for “AAGCGTGCTTGGGTTCTAACCTGTTGCCT (site AAGCGTGCTAG)”: 1.7.
